Experimental findings from PubChem BioAssay (NCI) are described below.

What all share (experiment): inhibition of tumour cell growth, NCI panel, 48 h
Experiment [1] has as its system PC-3 prostate.
The subject of experiment [2] is KM12 colon.
The test system of experiment [3] is HCT-116 colon.
Experiment [4] concerns NCI-H226 lung.
For experiment [5], the system named is IGROV1 ovarian.
For experiment [6], the system named is MCF7 breast.
Experiment [7] relates to HT29 colon.
Experiment [8] relates to SK-OV-3 ovarian.
Experiment [9] concerns HOP-62 NSCLC.
The subject of experiment [10] is A498 renal.
Experiment [11] has as its system OVCAR-4 ovarian.
For experiment [12], the system named is HCC-2998 colon.
In experiment [13] the test system is HCT-15 colon.
The test system of experiment [14] is K-562 leukemia.

Structures are written as SMILES.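 Exposure lasted 48 hours, with cells grown in 96-well plates and compounds tested at five concentrations. TGI: concentration producing complete growth inhibition.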

Take `CN(C)CCNc1ncnc2nc(-c3ccccc3)c(-c3ccccc3)nc12`: the TGI in experiment [1], in experiment [2], in experiment [3], in experiment [4], in [5] and in experiment [6] was above 100 µM each time. For the same compound, the TGI in experiment [7], in experiment [8], in [9] and in experiment [10] was above 100 µM in each case.
Consider `CN1CCOC1(C)c1ccccc1` (stereo not given), for which the TGI in [1], in experiment [2], in experiment [11], in experiment [12], in experiment [3] and in experiment [4] was above 100 µM in each case. The TGI in experiment [5], in [6], in [7], in experiment [8], in [13] and in [9] was above 100 µM each time. In addition, the TGI in experiment [14] and in [10] was above 100 µM in each case.
Consider `CC(=O)OC1CCn2c1nc1c2C(=O)C=C(N2CC2)C1=O` (stereo not given), for which the TGI in experiment [1] came out at 2.52 µM; in [11], 0.231 µM; in experiment [12] it was 3.07 µM; in experiment [3], 0.781 µM; in experiment [4], 6 µM; in experiment [5], 1.88 µM. The TGI in experiment [6] came out at 0.957 µM; in [7] it was 2.08 µM; in experiment [8], 6.15 µM; in [13], 1.96 µM; in experiment [9] it was 4.69 µM; in [14], 4.54 µM. Also, the TGI in experiment [10] was found to be 0.613 µM.
`Cn1c(=O)oc2cc(C(O)CN3CCN(Cc4ccc5c(c4)OCO5)CC3)ccc21` (stereo not given): the TGI in experiment [1], in experiment [2], in experiment [11], in [12], in experiment [3] and in [4] was above 100 µM throughout. The TGI in experiment [5], in experiment [6], in experiment [7], in [8], in experiment [13] and in experiment [9] was above 100 µM each time. Also, the TGI in experiment [14] and in experiment [10] was above 100 µM each time.
Turning to `CC(=O)Nc1ccc2cc(C#N)c(=O)[nH]c2n1`, the TGI in experiment [1], in experiment [2], in experiment [11], in experiment [12], in experiment [3] and in experiment [4] was above 100 µM throughout. For the same compound, the TGI in experiment [5], in [6], in experiment [8], in experiment [13], in [9] and in experiment [14] was above 100 µM each time. In [10], this compound had a TGI above 100 µM.
Turning to `COC(=O)c1cc(C#N)[nH]c1-c1ccc(Br)s1`, the TGI in experiment [1] was 13.4 µM; in [2], above 50 µM; in [11], 36.7 µM; in [12], 31.8 µM; in [3], 26.3 µM; in [4], 26.3 µM. The TGI was 20.9 µM in [5]; 18.6 µM in [6]; 24.8 µM in [7]; 24.7 µM in experiment [8]; 28 µM in experiment [13]; 21.4 µM in experiment [9]. Further, the TGI was above 48.4 µM in experiment [14] and 9.9 µM in experiment [10].
For the compound `COc1ccc(NCc2cccc3c(=O)c4ccc(Cl)cc4oc23)cc1`, the TGI in experiment [1], in experiment [2], in [11], in experiment [12], in experiment [3] and in experiment [4] was above 100 µM in each case. The TGI in experiment [5], in [6], in experiment [8], in experiment [13], in experiment [9] and in [14] was above 100 µM throughout. This compound also returned a TGI in experiment [10] above 100 µM.
For `c1ccc(C2(c3cc4ccccc4[nH]3)OCCO2)nc1`, the TGI in [1], in experiment [2], in [11], in [12], in experiment [3] and in [4] was above 100 µM in each case. In addition, the TGI in experiment [5], in experiment [6], in experiment [7], in [8], in experiment [13] and in experiment [9] was above 100 µM throughout. For the same compound, the TGI in experiment [10] is above 100 µM.
For the compound `Cc1cccc2c(N)c3cccc(C(=O)NCCNCCN)c3nc12`, the TGI is above 100 µM in experiment [1]; above 100 µM in experiment [2]; 19.1 µM in experiment [11]; above 40.8 µM in experiment [12]; above 42.6 µM in experiment [3]; above 100 µM in experiment [5]. For the same compound, the TGI was above 100 µM in [6]; 91.2 µM in experiment [7]; above 100 µM in experiment [8]; above 100 µM in experiment [13]; above 46.3 µM in experiment [9]; above 100 µM in experiment [14]. The TGI in [10] is above 55.9 µM.
For the compound `COc1ccc(C[C@@H]2OC3(C=CC(=O)CC3Sc3ccccc3)O[C@H]2Cc2ccc(OC)cc2)cc1` (stereo not given in full), the TGI was 3.95 µM in experiment [1]; 5.63 µM in experiment [2]; 3.7 µM in experiment [11]; 3.33 µM in experiment [4]; 2.13 µM in experiment [5]; 1.98 µM in experiment [6]. Besides, the TGI was 3.19 µM in [7]; 7.84 µM in [8]; 2.8 µM in [13]; 2.5 µM in experiment [9]; above 100 µM in [14]; 16.1 µM in experiment [10].
Take `O=C(Oc1ccc(C(c2c(O)c3ccccc3oc2=O)c2c(O)c3ccccc3oc2=O)cc1)c1ccc(C(=O)c2ccccc2)cc1`: the TGI is 35.8 µM in experiment [1]; 30.8 µM in [2]; 92.1 µM in [11]; 36 µM in experiment [12]; above 100 µM in experiment [3]; 25.9 µM in experiment [4]. Also, the TGI in experiment [5] is 36.6 µM; in [6], above 100 µM; in experiment [7] it was 31.8 µM; in [8], 33.4 µM; in [13], 89.4 µM; in [9], 69.9 µM. In addition, the TGI in [14] was determined as 47.9 µM.
`Cc1ccc(N=NC(=O)NNc2ccc(C)cc2Br)c(Br)c1`: the TGI in experiment [1] is 72.5 µM; in experiment [11], above 100 µM; in [12], 31.3 µM; in experiment [3] it was 24.6 µM; in [4], 62.8 µM; in experiment [5], 63.8 µM. The TGI in [6] was 41.3 µM; in experiment [7], above 100 µM; in experiment [13] it was 65.3 µM; in [9] it was 41.1 µM; in [14], 51.5 µM; in experiment [10], 52.3 µM.
Regarding `CC(NC1=NCCO1)c1ccsc1` (stereo not given), the TGI is 57.8 µM in [1]; 36.1 µM in experiment [2]; above 100 µM in experiment [11]; above 100 µM in experiment [12]; 34.1 µM in [3]; above 100 µM in experiment [4]. In addition, the TGI in experiment [5] was above 100 µM; in [6], above 100 µM; in [7] it was 42.7 µM; in [8], above 100 µM; in [13], above 100 µM; in experiment [14] it was 68 µM. Besides, the TGI in [10] was above 100 µM.
For `COC(=O)NCCc1[nH]nc2c1C(=O)C=C(Nc1ccccc1OC)C2=O`, the TGI in [1] is above 100 µM; in experiment [2] it was 64.4 µM; in experiment [11] it was 57.7 µM; in experiment [12], 40.3 µM; in [3], 38.1 µM; in experiment [5] it was 65.3 µM. Also, the TGI is 38.7 µM in experiment [6]; above 100 µM in experiment [7]; above 100 µM in experiment [8]; above 100 µM in experiment [13]; above 100 µM in experiment [9]; above 100 µM in experiment [14]. Also, in [10], the TGI was above 100 µM.
As to `COC1(OC)CCCCCCCCC(OC)(OC)CCCCCCCC1`, the TGI in experiment [1], in experiment [2], in [12], in experiment [3], in experiment [4] and in experiment [5] was above 100 µM in each case. The TGI in experiment [6], in experiment [7], in experiment [8], in experiment [13], in [9] and in experiment [14] was above 100 µM in each case. This compound had a TGI in [10] above 100 µM.
In the case of `CN1CC=C(C#CC(C)(C)O)CC1`, the TGI in [1], in experiment [2], in [11], in experiment [12], in [3] and in experiment [4] was above 37.5 µM throughout. Besides, the TGI in [5], in [6], in experiment [7], in experiment [8], in experiment [13] and in [9] was above 37.5 µM in each case. In experiment [14], this compound gave a TGI above 37.5 µM.
`CC1=C(C)C2(C#N)C(=O)N3C(=NC(c4ccco4)NC3c3ccco3)C2(C#N)C(c2ccco2)N1` (stereo not given): the TGI in [1], in experiment [2], in [11], in experiment [12], in [3] and in experiment [4] was above 100 µM each time. The TGI in [5], in experiment [6], in experiment [7], in experiment [8], in experiment [13] and in [9] was above 100 µM throughout. The TGI in [10] is above 100 µM.
As for `c1ccc(CN2C3C4N(Cc5ccccc5)C2C2N(Cc5ccccc5)C(C(N2Cc2ccccc2)N4Cc2ccccc2)N3Cc2ccccc2)cc1`, the TGI in experiment [1], in experiment [2], in [12], in experiment [3], in experiment [4] and in [5] was above 100 µM each time. The TGI in experiment [6], in [7], in experiment [8], in experiment [13], in [9] and in experiment [14] was above 100 µM in each case. Further, the TGI in [10] was above 100 µM.
Regarding `C=C1C(=O)O[C@H]2C(=O)[C@H](C)CCC/C(C)=C/CC[C@@]3(C)O[C@@H]3C[C@@H]12`, the TGI in experiment [1] came out at 21.2 µM; in [2], 22.3 µM; in experiment [3], 2.26 µM; in experiment [4], 33.3 µM; in experiment [5], 10.2 µM; in [6], 15 µM. The TGI came out at 10.6 µM in [7]; 30.3 µM in experiment [8]; 3.12 µM in [13]; 24.3 µM in experiment [9]; 10.2 µM in experiment [14]; 32.8 µM in experiment [10].
Consider `CSc1ccccc1NC1=NCCO1`, for which the TGI in [1], in experiment [2], in experiment [11], in experiment [12], in experiment [3] and in experiment [4] was above 100 µM in each case. Further, the TGI in experiment [5], in experiment [6], in experiment [7], in experiment [13], in [9] and in [14] was above 100 µM throughout. The compound further came in with a TGI in experiment [10] above 100 µM.
On to `C#CCNCC(=O)O`, for which the TGI in experiment [1], in experiment [2], in [11], in [12], in [3] and in [4] was above 100 µM throughout. Moreover, the TGI in experiment [5], in [6], in experiment [7], in experiment [8], in experiment [13] and in experiment [9] was above 100 µM in each case. In experiment [10], this compound returned a TGI above 100 µM.
